Data on 2 compounds can be found in paper PMC7288559 (ACS Omega, 2020).

The target in one assay is recombinant human LDHA (Homo sapiens, UniProt P00338). Description: LDHA enzymatic assay based on NADH cofactor consumption [NAD. Type of assay: biochemical. Particulars: in vitro, dose-dependent.
Assay [1] has as its system hepatocellular carcinoma cells Snu-398. Type of assay: cell-based. As to conditions: lactate in supernatant.
For assay [2], the system named is pancreatic carcinoma cells MIA PaCa-2. The class given is cell-based. Particulars: lactate in supernatant.

The structures appear in SMILES notation.

For `O=C(O)c1ccc(CN2C(=O)c3cccc(NC(=O)c4ccc(Cl)s4)c3C2=O)cc1` [Compound 3, 4-[(4-{[(5-chloro-2-thienyl)carbonyl]amino}-1,3-dioxo-1,3-dihydro-2H-isoindol-2-yl)methyl]benzoic acid], the “Inhibition of lactate production by recombinant human LDHA” value on recombinant human LDHA is recorded as “completely inhibited”. The “Inhibition of lactate production in cells” value in assay [1] and in assay [2] was “neither 3 nor 7 showed inhibition” each time.

For the compound `O=C(Nc1cccc(NS(=O)(=O)c2ccc3oc4cc([N+](=O)[O-])ccc4c3c2)c1)C1(O)CC1` [Compound 7, 1-hydroxy-N-(3-{[(7-nitrodibenzo[b,d]furan-2-yl)sulfonyl]amino}phenyl)cyclopropanecarboxamide], the “Inhibition of lactate production by recombinant human LDHA” value at recombinant human LDHA is given as “completely inhibited”. For the same compound, the “Inhibition of lactate production in cells” value in assay [1] and in assay [2] was “neither 3 nor 7 showed inhibition” in each case.
